Results as given in article PMC11062899, “De novo development of small cyclic peptides that are orally bioavailable” (Nature Chemical Biology, 2023).
Several values for one entry are separate records, joined by “and”; a condition that tells them apart may be missing. Identical values can stand only once. Like-named read-outs stand apart in the source and are kept apart here.

Assays:
human α-thrombin = human α-thrombin (Homo sapiens, UniProt P00734); assay: Protease inhibition, Ki for human α-thrombin (fluorogenic substrate Z-Gly-Gly-Arg-AMC); type: biochemical; details: for Human alpha thrombin inhibition, slope normalized to DMSO: replicates R1-R3
Method: (§1) The inhibition constants (Ki) of cyclic peptides were calculated by measuring thrombin inhibition in the presence of different concentrations of the cyclic peptides. […] Human α-thrombin (Molecular Innovations) and rat α-thrombin (Molecular Innovations) were used at final concentrations of 2 nM and 3 nM, respectively, and fluorogenic substrate (Z-Gly-Gly-Arg-AMC, Bachem) was used at a concentration of 50 μM. Enzymatic activity was determined by measuring fluorescent gain on a Tecan Infinite M200 Pro microplate reader (excitation: 360 nm, emission: 465 nm) or a PHERAstar FSX microplate reader (excitation: 380 nm, emission: 440 nm) for 30 min at 25 °C with a fluorescent readout every 3 min. The two instruments were controlled with Tecan Infinite M200 Pro instrument software (iControl, version 1.12) and PHERAstar FSX software (version 5.70, edition 8), respectively. Protease inhibition was calculated by comparing the enzymatic activity to a control without cyclic peptide.
(§2) Half maximal inhibitory concentration (IC50) values were determined using a four-parameter logistic regression model in GraphPad Prism 9 to fit sigmoidal curves to the acquired data points according to equation (2) below.2 y=b+a−b/1+10^(logIC50−x)p where a and b represent the measured inhibition maximum and minimum, respectively; x is the logarithm of peptide concentration; y is the thrombin activity compared to a control without the cyclic peptide; and p is the Hill coefficient.
(§3) Ki values were calculated using the IC50 and the Cheng–Prusoff equation (equation (3)).3 Ki=IC50/1+S0/Km where Km is the Michaelis–Menten constant of the enzyme for the substrate used in the assay, and [S]0 is the initial substrate concentration.

rat α-thrombin = biological target: T1, rat α-thrombin (Rattus norvegicus, UniProt P18292); assay: Protease inhibition, Ki for rat α-thrombin (fluorogenic substrate Z-Gly-Gly-Arg-AMC); type: biochemical; details: for Rat alpha thrombin inhibition, slope normalized to DMSO: replicates R1-R3
T1 construct: rat α-thrombin (Molecular Innovations) were used at final concentrations of 2 nM and 3 nM; purchased Molecular Innovations
Method: as §1, §2, §3

[1] = Passive artificial membrane permeability (PAMPA);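 on Permeability% Average: top well sample relative to theoretical equilibrium sample by TIC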
[2] = peptide concentration 1.00E+02 uM
[3] = peptide concentration 1.19E-05 uM
[4] = peptide concentration 1.22E-02 uM
[5] = peptide concentration 1.25E+01 uM
[6] = peptide concentration 1.53E-03 uM
[7] = peptide concentration 1.56E+00 uM
[8] = peptide concentration 1.91E-04 uM
[9] = peptide concentration 1.95E-01 uM
[10] = peptide concentration 2.38E-05 uM
[11] = peptide concentration 2.44E-02 uM
[12] = peptide concentration 2.50E+01 uM
[13] = peptide concentration 3.05E-03 uM
[14] = peptide concentration 3.12E+00 uM
[15] = peptide concentration 3.81E-04 uM
[16] = peptide concentration 3.91E-01 uM
[17] = peptide concentration 4.77E-05 uM
[18] = peptide concentration 4.88E-02 uM
[19] = peptide concentration 5.00E+01 uM
[20] = peptide concentration 6.10E-03 uM
[21] = peptide concentration 6.25E+00 uM
[22] = peptide concentration 7.63E-04 uM
[23] = peptide concentration 7.81E-01 uM
[24] = peptide concentration 9.54E-05 uM
[25] = peptide concentration 9.77E-02 uM

Ki (human α-thrombin; average of R1-R3, read-out: Human alpha thrombin inhibition, Ki Average): 3.78 µM
Human alpha thrombin inhibition, slope normalized to DMSO (human α-thrombin; [2]): 24.9 and 25.0 and 20.5
Human alpha thrombin inhibition, slope normalized to DMSO (human α-thrombin; [3]): 103.5 and 123.5 and 102.0
Human alpha thrombin inhibition, slope normalized to DMSO (human α-thrombin; [4]): 106.6 and 86.5 and 61.9
Human alpha thrombin inhibition, slope normalized to DMSO (human α-thrombin; [5]): 42.7 and 42.4 and 47.7
Human alpha thrombin inhibition, slope normalized to DMSO (human α-thrombin; [6]): 60.4 and 64.9 and 105.1
Human alpha thrombin inhibition, slope normalized to DMSO (human α-thrombin; [7]): 69.9 and 77.6 and 68.9
Human alpha thrombin inhibition, slope normalized to DMSO (human α-thrombin; [8]): 105.9 and 100.1 and 65.2
Human alpha thrombin inhibition, slope normalized to DMSO (human α-thrombin; [9]): 62.1 and 70.8 and 60.8
Human alpha thrombin inhibition, slope normalized to DMSO (human α-thrombin; [10]): 104.8 and 103.3 and 108.6
Human alpha thrombin inhibition, slope normalized to DMSO (human α-thrombin; [11]): 60.0 and 97.7 and 99.0
Human alpha thrombin inhibition, slope normalized to DMSO (human α-thrombin; [12]): 33.7 and 37.4 and 37.6
Human alpha thrombin inhibition, slope normalized to DMSO (human α-thrombin; [13]): 90.7 and 95.7 and 101.5
Human alpha thrombin inhibition, slope normalized to DMSO (human α-thrombin; [14]): 61.5 and 74.1 and 46.2
Human alpha thrombin inhibition, slope normalized to DMSO (human α-thrombin; [15]): 102.1 and 112.0 and 80.2
Human alpha thrombin inhibition, slope normalized to DMSO (human α-thrombin; [16]): 89.5 and 72.3
Human alpha thrombin inhibition, slope normalized to DMSO (human α-thrombin; [17]): 107.9 and 97.7 and 98.2
Human alpha thrombin inhibition, slope normalized to DMSO (human α-thrombin; [18]): 58.9 and 84.7 and 96.6
Human alpha thrombin inhibition, slope normalized to DMSO (human α-thrombin; [19]): 23.5 and 29.5 (2×)
Human alpha thrombin inhibition, slope normalized to DMSO (human α-thrombin; [20]): 76.0 and 102.5 and 99.2
Human alpha thrombin inhibition, slope normalized to DMSO (human α-thrombin; [21]): 68.9 and 63.0 and 35.5
Human alpha thrombin inhibition, slope normalized to DMSO (human α-thrombin; [22]): 61.7 and 101.5 and 87.5
Human alpha thrombin inhibition, slope normalized to DMSO (human α-thrombin; [23]): 99.5 and 72.0 and 89.1
Human alpha thrombin inhibition, slope normalized to DMSO (human α-thrombin; [24]): 106.0 and 103.1 and 118.2
Human alpha thrombin inhibition, slope normalized to DMSO (human α-thrombin; [25]): 62.3 and 75.9 and 55.0
Ki (rat α-thrombin; average of R1-R3, read-out: Rat alpha thrombin inhibition, Ki Average): 1.48 µM
Rat alpha thrombin inhibition, slope normalized to DMSO (rat α-thrombin; [2]): 8.5 and 10.5 and 9.7
Rat alpha thrombin inhibition, slope normalized to DMSO (rat α-thrombin; [3]): 107.2 and 105.4 and 103.1
Rat alpha thrombin inhibition, slope normalized to DMSO (rat α-thrombin; [4]): 105.9 and 100.2 and 97.5
Rat alpha thrombin inhibition, slope normalized to DMSO (rat α-thrombin; [5]): 28.9 and 25.6 and 11.1
Rat alpha thrombin inhibition, slope normalized to DMSO (rat α-thrombin; [6]): 104.7 and 100.1 and 100.7
Rat alpha thrombin inhibition, slope normalized to DMSO (rat α-thrombin; [7]): 60.2 and 60.7 and 63.3
Rat alpha thrombin inhibition, slope normalized to DMSO (rat α-thrombin; [8]): 101.0 and 93.6 and 80.4
Rat alpha thrombin inhibition, slope normalized to DMSO (rat α-thrombin; [9]): 77.4 and 91.6 and 90.6
Rat alpha thrombin inhibition, slope normalized to DMSO (rat α-thrombin; [10]): 99.9 and 95.1 and 101.1
Rat alpha thrombin inhibition, slope normalized to DMSO (rat α-thrombin; [11]): 106.7 and 94.6 and 110.9
Rat alpha thrombin inhibition, slope normalized to DMSO (rat α-thrombin; [12]): 3.6 and 15.7 and 17.5
Rat alpha thrombin inhibition, slope normalized to DMSO (rat α-thrombin; [13]): 104.4 and 102.5 and 99.7
Rat alpha thrombin inhibition, slope normalized to DMSO (rat α-thrombin; [14]): 54.9 and 53.5 and 52.8
Rat alpha thrombin inhibition, slope normalized to DMSO (rat α-thrombin; [15]): 103.0 and 99.2 and 100.1
Rat alpha thrombin inhibition, slope normalized to DMSO (rat α-thrombin; [16]): 58.4 and 57.7 and 87.4
Rat alpha thrombin inhibition, slope normalized to DMSO (rat α-thrombin; [17]): 109.2 and 85.2 and 99.3
Rat alpha thrombin inhibition, slope normalized to DMSO (rat α-thrombin; [18]): 100.3 and 95.3 and 106.1
Rat alpha thrombin inhibition, slope normalized to DMSO (rat α-thrombin; [19]): 16.0 and 15.4 and 14.7
Rat alpha thrombin inhibition, slope normalized to DMSO (rat α-thrombin; [20]): 102.6 and 94.5 and 101.1
Rat alpha thrombin inhibition, slope normalized to DMSO (rat α-thrombin; [21]): 50.1 and 39.5 and 38.6
Rat alpha thrombin inhibition, slope normalized to DMSO (rat α-thrombin; [22]): 102.8 and 105.9 and 89.3
Rat alpha thrombin inhibition, slope normalized to DMSO (rat α-thrombin; [23]): 79.5 and 71.2 and 76.6
Rat alpha thrombin inhibition, slope normalized to DMSO (rat α-thrombin; [24]): 103.0 and 96.4 and 84.9
Rat alpha thrombin inhibition, slope normalized to DMSO (rat α-thrombin; [25]): 100.1 and 93.3 and 83.6
IC50 (rat α-thrombin; single replicates R1-R3, read-out: Rat alpha thrombin inhibition, IC50): 2.6 µM and 2.78 µM and 2.67 µM
PAMPA permeability: % permeability ([1]; 50 μM, 12–18 h, acceptor concentration relative to equilibrium): 42 ± 11%
Permeability% (single replicates R1–R3) ([1]; 50 μM, 13 h (Fig. 5d)): 47.12% and 50.47% and 29.38%
Permeability% Average ([1]; 50 μM, 13 h (Fig. 5d)): 42.3%
Papp at 50 μM ([1]; PAMPA, pH 7.4): 4.9 ×10⁻⁶ cm/s
Compound: O=C1C[C@H]2CCCN2C(=O)[C@H](Cc2ccccc2)NC(=O)[C@@H](NC(=O)c2ccc(Cl)s2)CC=CCCCN1 [compound 40]
Ki (rat α-thrombin; single replicates R1-R3, read-out: Rat alpha thrombin inhibition, Ki): 1.44 µM (2×) and 1.54 µM (2×) and 1.48 µM (2×)
